ChEMBL document CHEMBL1201862, “PubChem BioAssay data set” (2004)
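All cell lines were grown in 96-well plates and treated with compound for 48 hours. Abbreviation: GI50, concentration required for 50% inhibition of growth.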 Active and inactive are the calls of the source. Rule as the data show it: active = GI50 up to about 1.1 µM and inactive = higher.

Tests used:
Experiment in all cases: growth of human tumour cells (NCI), 48 h
[1] = tested on: HOP-62
[2] = tested on: UACC-257
[3] = tested on: BT-549
[4] = tested on: ACHN
[5] = tested on: RXF 393
[6] = tested on: MDA-MB-435
[7] = tested on: UO-31
[8] = tested on: SK-MEL-2
[9] = tested on: HCT-116
[10] = tested on: PC-3
[11] = tested on: OVCAR-8
[12] = tested on: U-251
[13] = tested on: K562
[14] = tested on: Malme-3M
[15] = tested on: SK-MEL-28
[16] = tested on: OVCAR-3
[17] = tested on: MDA-MB-231
[18] = tested on: RPMI-8226
[19] = tested on: EKVX
[20] = tested on: A498

Row | SMILES | GI50 [1] | GI50 [2] | GI50 [3] | GI50 [4] | GI50 [5] | GI50 [6] | GI50 [7] | GI50 [8] | GI50 [9] | GI50 [10] | GI50 [11] | GI50 [12] | GI50 [13] | GI50 [14] | GI50 [15] | GI50 [16] | GI50 [17] | GI50 [18] | GI50 [19] | GI50 [20]
1 | Oc1cc(N2CCCC2)ccc1/C=N/N1C(=S)N(c2ccccc2)C(=N\c2ccccc2)/C1=N/c1ccccc1 | 35.2 µM (inactive) | > 100 µM (inactive) | > 100 µM (inactive) | > 100 µM (inactive) | 14.2 µM (inactive) | > 100 µM (inactive) | > 100 µM (inactive) | > 100 µM (inactive) | 44.6 µM (inactive) | > 100 µM (inactive) | > 100 µM (inactive) | 31.2 µM (inactive) | > 100 µM (inactive) | > 100 µM (inactive) | > 100 µM (inactive) | > 100 µM (inactive) | 48 µM (inactive) | > 100 µM (inactive) | > 100 µM (inactive) | –
2 | COc1c2cc(C(C)(C)C)cc1Cc1cccc(c1O)Cc1cc(C(C)(C)C)cc(c1OC)Cc1cccc(c1O)Cc1cc(C(C)(C)C)cc(c1OC)Cc1cccc(c1O)C2 | > 100 µM (inactive) | 96.6 µM (inactive) | – | > 100 µM (inactive) | > 100 µM (inactive) | > 100 µM (inactive) | > 100 µM (inactive) | > 100 µM (inactive) | > 100 µM (inactive) | > 100 µM (inactive) | > 100 µM (inactive) | > 100 µM (inactive) | > 100 µM (inactive) | > 100 µM (inactive) | > 100 µM (inactive) | > 100 µM (inactive) | > 100 µM (inactive) | > 100 µM (inactive) | > 100 µM (inactive) | > 100 µM (inactive)
3 | COc1cc(S(=O)(=O)Nc2ccc(-c3csc(N4C(=O)C(Cl)C4c4ccccc4)n3)cc2)ccc1Cl (stereo not drawn) | 69.2 µM (inactive) | 8.45 µM (inactive) | 26.9 µM (inactive) | 60 µM (inactive) | 10.7 µM (inactive) | 38.5 µM (inactive) | 25 µM (inactive) | > 100 µM (inactive) | 59.6 µM (inactive) | > 100 µM (inactive) | 20.1 µM (inactive) | – | 32.2 µM (inactive) | 22.3 µM (inactive) | 66.5 µM (inactive) | > 100 µM (inactive) | – | 31.4 µM (inactive) | 31.9 µM (inactive) | 25.9 µM (inactive)
4 | COc1ccc(C(=C(I)c2ccccc2)c2ccc(OC)cc2)cc1 | > 100 µM (inactive) | > 100 µM (inactive) | > 100 µM (inactive) | > 100 µM (inactive) | > 100 µM (inactive) | > 100 µM (inactive) | > 100 µM (inactive) | > 100 µM (inactive) | 51.3 µM (inactive) | > 100 µM (inactive) | > 100 µM (inactive) | > 100 µM (inactive) | > 100 µM (inactive) | > 100 µM (inactive) | > 100 µM (inactive) | > 100 µM (inactive) | > 100 µM (inactive) | > 100 µM (inactive) | > 100 µM (inactive) | –
5 | Cc1nc2ccc(Cl)cc2c2c1CCN2c1ccc(F)cc1 | 18.9 µM (inactive) | 14.3 µM (inactive) | – | 17.7 µM (inactive) | 17.1 µM (inactive) | 7.05 µM (inactive) | 5.4 µM (inactive) | 23 µM (inactive) | 5.75 µM (inactive) | 11 µM (inactive) | 22.5 µM (inactive) | 45.8 µM (inactive) | 5.35 µM (inactive) | 24.8 µM (inactive) | 20 µM (inactive) | 21.8 µM (inactive) | 7.48 µM (inactive) | 8.24 µM (inactive) | 45.2 µM (inactive) | 0.891 µM (active)
6 | O=C1CSC2(CC(/C=C/C=C/c3ccccc3)=NN2c2cccc(S(=O)(=O)O)c2)N1c1nc2ccccc2s1 (stereo not drawn) | – | 40.6 µM (inactive) | 51.5 µM (inactive) | 40.3 µM (inactive) | > 100 µM (inactive) | 21.6 µM (inactive) | 45.3 µM (inactive) | 26 µM (inactive) | 46.5 µM (inactive) | 37.3 µM (inactive) | 42.1 µM (inactive) | 24 µM (inactive) | 29 µM (inactive) | – | > 100 µM (inactive) | – | 31.3 µM (inactive) | 21.2 µM (inactive) | 49 µM (inactive) | 26.4 µM (inactive)
7 | O=C(C#Cc1ccccc1)N1CCCCC1 | > 100 µM (inactive) | > 100 µM (inactive) | > 100 µM (inactive) | 58.1 µM (inactive) | – | 63.5 µM (inactive) | – | > 100 µM (inactive) | 16.8 µM (inactive) | 77.4 µM (inactive) | 48.6 µM (inactive) | 84.1 µM (inactive) | 73.6 µM (inactive) | 40 µM (inactive) | > 100 µM (inactive) | 81.7 µM (inactive) | 72.3 µM (inactive) | 62.5 µM (inactive) | 63.2 µM (inactive) | > 100 µM (inactive)
8 | CC(O)C1CC1(CO)CNc1cc(Cl)nc(N)n1 (stereo not drawn) | > 100 µM (inactive) | > 100 µM (inactive) | > 100 µM (inactive) | > 100 µM (inactive) | > 100 µM (inactive) | > 100 µM (inactive) | > 100 µM (inactive) | > 100 µM (inactive) | > 100 µM (inactive) | > 100 µM (inactive) | > 100 µM (inactive) | > 100 µM (inactive) | > 100 µM (inactive) | > 100 µM (inactive) | > 100 µM (inactive) | > 100 µM (inactive) | > 100 µM (inactive) | > 100 µM (inactive) | > 100 µM (inactive) | –
9 | CC(NC(=O)N(C)C)NC(=O)N(C)C | > 10 µM (inactive) | > 10 µM (inactive) | – | > 10 µM (inactive) | > 10 µM (inactive) | > 10 µM (inactive) | > 10 µM (inactive) | > 10 µM (inactive) | > 10 µM (inactive) | > 10 µM (inactive) | > 10 µM (inactive) | > 10 µM (inactive) | > 10 µM (inactive) | > 10 µM (inactive) | > 10 µM (inactive) | > 10 µM (inactive) | > 10 µM (inactive) | > 10 µM (inactive) | > 10 µM (inactive) | > 10 µM (inactive)
10 | COC(=O)C1CCN(C(=O)OC(C)(C)C)CC1 | > 100 µM (inactive) | > 100 µM (inactive) | 0.993 µM (active) | > 100 µM (inactive) | – | > 100 µM (inactive) | > 100 µM (inactive) | > 100 µM (inactive) | > 100 µM (inactive) | > 100 µM (inactive) | > 100 µM (inactive) | > 100 µM (inactive) | – | > 100 µM (inactive) | > 100 µM (inactive) | > 100 µM (inactive) | > 100 µM (inactive) | > 100 µM (inactive) | > 100 µM (inactive) | > 100 µM (inactive)
11 | CCN(C(=O)N[C@@H](Cc1ccccc1)C(=O)N[C@@H](CC(C)C)C(=O)OC)c1ccccc1 | 34.4 µM (inactive) | 23.2 µM (inactive) | 57.1 µM (inactive) | 21.3 µM (inactive) | 19.1 µM (inactive) | 51.6 µM (inactive) | 18.1 µM (inactive) | 61 µM (inactive) | 20.2 µM (inactive) | 35.1 µM (inactive) | 15.3 µM (inactive) | 25.9 µM (inactive) | 31.3 µM (inactive) | – | 17.5 µM (inactive) | 26.5 µM (inactive) | 55.7 µM (inactive) | 20.1 µM (inactive) | 18.7 µM (inactive) | –
